According to US20240299400A1, “Transcription Factor GLI1 Inhibitors and Uses Thereof” (University of Connecticut, priority 2023, published 2024):

What was measured:
[1] = tested on: ASZ001 cells; assay: MTS anti-proliferative assay in ASZ001 cells; format: cell-based, murine; conditions: Mus musculus, ASZ001; Table 5, 48 h, Ave ± SEM
Procedure: Cell viability was assessed by MTS proliferation assay kit (Promega) per manufacturer's protocol. Briefly, 2×10^4 cells were plated in a 96-well plate in 100 μL growth medium to make the cell population at ˜80% confluence. After 24 h, 1 μL drug solution was added to each well. DMSO was used as vehicle compound. After 48 h incubation (37° C., 5% CO2), 20 μL of freshly prepared 3-(4,5-dimethylthiazol-2-yl)-5-(3-carboxymethoxyphenyl)-2-(4-sulfophenyl)-2H-tetrazolium (MTS)/phenazine methosulfate (PMS) solution was added to each well, and the plate was returned to the incubator for 1 h. Absorbance at 490 nm was recorded, and the result was analyzed by GraphPad Prism 5. GI50 values represent mean±SEM for at least two separate experiments performed in triplicate.

[2] = tested on: GLI1 mRNA expression; assay: RT-qPCR GLI1 mRNA expression in Sufu-KO MEFs; format: cell-based, mouse
Procedure: (§1) ASZ001 and Sufu-KO cells were seeded in 96-well plates (10,000/well, 100 μL) and incubated overnight under growth conditions. On the second day, ‘growth’ media was removed and replaced by ‘assay’ media (100 μL). On the third day, cells were treated with a serial dilution of drugs or DMSO for 48 h. mRNA expression was determined through Taqman Fast Cells-to-CT Kit (#4399003) per the manufacturer's instructions. In brief, cells were washed with chilled PBS, then mixed with lysis solution containing DNase I and incubated at RT for 5 min. Stop solution was then added to quench the lysis reagents. cDNA was then synthesized through a BioRad MyCycler following addition of reverse transcriptase. Finally, the cDNA was amplified through an ABI 7500 system following addition of Taqman Fast Universal PCR Master Mix and Taqman Gene Expression Primer. Relative gene expression levels were computed by the ΔΔCt method. Values represent mRNA expression relative to DMSO control (set at 1.0). Data were analyzed using GraphPad Prism, and IC50 values are the mean±SEM for at least two separate experiments performed in triplicate. Primers used are as follows: mouse ActB (Mm00607939_s1); mouse GLI1 (Mm00494645_ml); mouse Gli2 (Mm01293117_ml); mouse Ptch1 (Mm00436026_ml); mouse Hhip (Mm00469580_ml).

[3] = tested on: GLI1 mRNA expression; assay: RT-qPCR GLI1 mRNA expression in ASZ001 BCC cells; format: cell-based, mouse; conditions: for reduction of GLI1 expression in ASZ001 (in words): concentrations up to 10 μM
Procedure: as §1

[4] = tested on: GLI1 mRNA expression; assay: RT-qPCR GLI1 mRNA expression in OHCs-stimulated C3H10T1/2 MEFs; format: cell-based, mouse; conditions: for % Gli1 Expression: C3H10T1/2 MEFs, 10 μM, relative to Hh-agonist OHCs (set as 100%)
Procedure: as §1
C3H10T1/2 MEFs were seeded in 24-well plates (50,000/well, 500 μL). Following 24 h incubation, the ‘growth’ media was removed and replaced with ‘assay’ media (500 μL). On the third day, cells were treated with either DMSO, OHCs, or OHCs+drugs. Following a 24 h incubation, gene expression analysis was carried out following identical protocols as described above.

[5] = Table 2, mean ± SEM, read-out: GLI1 mRNA expression, IC50 C3H10T1/2
[6] = Table 2, mean ± SEM, read-out: GLI1 mRNA expression, IC50 Sufu-KO
[7] = Table 2, mean ± SEM, read-out: GLI1 mRNA expression, IC50 ASZ001

SMILES | % Gli1 Expression ([4]; mean ± SEM) [%] | IC50 [4, 5] [nM] | IC50 [2, 6] [nM] | IC50 [3, 7] [nM] | other results
CCN(CC)c1ccc(C(Nc2ccccn2)c2ccc3ccc(C)nc3c2OCc2ccccc2)cc1 (stereo not drawn) [Compound 24, N-((4-Diethylaminophenyl)(8-benzyloxy-2-methylquinolin-7-yl)methyl)pyridin-2-amine] | – | – | – | – | GI50 [1]: > 100000 nM; IC50 ([2]; Mus musculus, Table 5, GLI1 mRNA, Ave ± SEM, read-out: RT-qPCR, IC50 Sufu-KO): > 25000 nM; IC50 ([3]; Mus musculus, ASZ001, Table 5, GLI1 mRNA, Ave ± SEM, read-out: RT-qPCR, IC50 ASZ001): 1700 ± 300 nM
Cc1ccc(NC(c2cccc(C)n2)c2ccc3cccnc3c2O)nc1 (stereo not drawn) [s25] | >100 | – | – | – | –
COc1ccc(C(Nc2ccccn2)c2ccc3cccnc3c2O)cc1[N+](=O)[O-] (racemic) [Compound 13] | 5.9 ± 0.3 | 1000 ± 300 | 1700 ± 100 | 3600 ± 1100 | –
CSc1ccc(C(Nc2cc(C)ccn2)c2ccc3cccnc3c2O)cc1 (racemic) [Compound 8] | 4.1 ± 1.1 | 980 ± 470 | 1300 ± 200 | 4500 ± 2600 | –
Cc1ccc2ccc(C(Nc3ccccn3)c3ccc(Cl)c(Cl)c3)c(O)c2n1 (racemic) [Compound 11] | 16.6 ± 0.7 | 390 ± 270 | 3700 ± 1000 | > 10000 | reduction of GLI1 expression in ASZ001 (in words) [3]: did not reduce GLI1 expression
CCOc1cc(C(Nc2cc(C)ccn2)c2ccc3cccnc3c2O)ccc1OC (racemic) [Compound 6] | 7.6 ± 0.9 | 3100 ± 1200 | 780 ± 160 | > 10000 | reduction of GLI1 expression in ASZ001 (in words) [3]: did not reduce GLI1 expression
CCOc1cccc(C(Nc2ccccn2)c2ccc3ccc(C)nc3c2O)c1 (racemic) [s6] | 56.1 ± 2.1 | – | – | – | –
Cc1ccccc1C(Nc1ccccn1)c1ccc2cccnc2c1O (racemic) [Compound 9] | 10.6 ± 1.9 | 620 ± 190 | 1900 ± 600 | > 10000 | reduction of GLI1 expression in ASZ001 (in words) [3]: did not reduce GLI1 expression
Oc1c(C(Nc2ccccn2)c2ccc(Cl)c(Cl)c2)ccc2cccnc12 (racemic) [Compound 7] | 4.2 ± 0.9 | 570 ± 140 | 480 ± 220 | 2800 ± 1500 | IC50 ([4]; Table 4, racemates and enantiomers, mean ± SEM, read-out: RT-qPCR, IC50 C3H10T1/2): 570 ± 140 nM; IC50 ([2]; Table 4, racemates and enantiomers, mean ± SEM, read-out: RT-qPCR, IC50 Sufu-KO): 480 ± 220 nM; IC50 ([3]; Table 4, racemates and enantiomers, mean ± SEM, read-out: RT-qPCR, IC50 ASZ001): 2800 ± 1500 nM
COc1ccc(I)cc1C(Nc1cc(C)ccn1)c1ccc2cccnc2c1O (racemic) [s19] | >100 | – | – | – | –
COc1ccc(C(Nc2cc(C)ccn2)c2ccc3cccnc3c2O)cc1O (racemic) [Compound 5] | 6.1 ± 0.6 | 1800 ± 500 | 630 ± 200 | 7100 ± 1200 | –
Cc1ccc2ccc(C(Nc3ccccn3)c3ccccc3Cl)c(O)c2n1 (racemic) [s12] | 23.6 ± 2.8 | – | – | – | –
Cc1ccc2ccc(C(Nc3ccccn3)c3ccccc3F)c(O)c2n1 (racemic) [s14] | 78.9 ± 17.6 | – | – | – | –
CCOc1ccc(C(Nc2ccccn2)c2ccc3ccc(C)nc3c2O)cc1 (racemic) [s16] | 86.8 ± 5.7 | – | – | – | –
CCc1ccc(C(Nc2cc(C)ccn2)c2ccc3cccnc3c2O)cc1 (racemic) [s10] | 79.4 ± 8.1 | – | – | – | –
COc1ccc(C(Nc2ccccn2)c2ccc3ccc(C)nc3c2O)cc1C (racemic) [s11] | 62.1 ± 6.4 | – | – | – | –
